Experimental findings from patent US20260234147A1 (priority 2023, published 2026) are described below.

One data set deals with T1, α2A adrenergic receptor (Homo sapiens, UniProt P08913).
T1 construct: Eurofins Cerep (contract screening)
T1 sequence (P08913 1-465): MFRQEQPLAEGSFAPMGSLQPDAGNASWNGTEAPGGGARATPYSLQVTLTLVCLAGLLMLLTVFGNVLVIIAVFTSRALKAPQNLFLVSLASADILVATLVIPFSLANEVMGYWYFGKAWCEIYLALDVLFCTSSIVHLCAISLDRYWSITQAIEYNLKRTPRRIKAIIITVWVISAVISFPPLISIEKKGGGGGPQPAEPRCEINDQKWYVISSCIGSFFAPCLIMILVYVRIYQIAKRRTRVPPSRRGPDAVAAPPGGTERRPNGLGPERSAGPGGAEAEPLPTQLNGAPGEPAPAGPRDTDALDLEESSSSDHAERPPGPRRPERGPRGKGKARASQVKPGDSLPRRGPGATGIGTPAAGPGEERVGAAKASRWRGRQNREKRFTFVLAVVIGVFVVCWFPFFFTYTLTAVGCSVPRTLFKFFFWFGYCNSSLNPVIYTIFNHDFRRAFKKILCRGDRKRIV
In words: Radioligand binding assay (Eurofins Cerep), [3H]RX 821002 displacement.

In a further data set the target is hMOR (Homo sapiens, UniProt P35372). The data set can be described thus: Radioligand binding assay (Eurofins Cerep), [3H]DAMGO displacement.
The target of the next data set is T2, α2C adrenergic receptor (Homo sapiens, UniProt P18825).
T2 construct: Eurofins Cerep (contract screening)
T2 sequence (P18825 1-462): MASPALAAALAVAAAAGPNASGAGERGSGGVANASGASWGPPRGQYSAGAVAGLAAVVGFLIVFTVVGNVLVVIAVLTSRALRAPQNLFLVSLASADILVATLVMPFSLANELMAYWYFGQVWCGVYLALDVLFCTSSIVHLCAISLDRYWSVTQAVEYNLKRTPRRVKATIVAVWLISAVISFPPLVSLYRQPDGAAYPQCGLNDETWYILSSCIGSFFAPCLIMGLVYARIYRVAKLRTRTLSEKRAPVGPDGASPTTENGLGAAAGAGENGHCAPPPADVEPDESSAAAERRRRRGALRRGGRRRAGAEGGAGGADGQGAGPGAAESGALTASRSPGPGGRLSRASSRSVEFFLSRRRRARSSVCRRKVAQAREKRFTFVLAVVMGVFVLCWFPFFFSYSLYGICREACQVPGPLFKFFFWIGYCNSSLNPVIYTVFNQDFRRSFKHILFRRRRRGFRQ
The data set can be described thus: Radioligand binding assay (Eurofins Cerep), [3H]RX 821002 displacement. Particulars: Ki (nM ± SEM) a2C-AR, 3 independent experiments.

The next data set deals with hKOR (Homo sapiens, UniProt P41145). In words: Radioligand binding assay (Eurofins Cerep), [3H]U69,593 displacement.
For another data set, the target named is hDOR (Homo sapiens, UniProt P41143). In words: Radioligand binding assay (Eurofins Cerep), [3H]DADLE displacement.
Data set [1] can be described thus: Metabolic stability in rat liver microsomes. To be noted: for Whole liver clearance, CL int, H: in vitro intrinsic clearance in RLM scaled to whole organ (rat); for RLM stability: rat liver microsomes 1 mg/ml, substrate 1 μM, NADPH, 37° C. The class given is in vitro ADME. How it is done:
In vitro metabolic stability of each compound was determined using rat liver microsomes in triplicate. Verapamil was used as a positive control to check the activity of the microsomes. The incubation mixtures consisted of rat liver microsomes (1 mg microsomal protein/ml), substrate (1 μM), and reduced NADPH (1 mM) in a total volume of 0.4 ml potassium phosphate buffer (50 mM, pH 7.4). Reactions were initiated with the addition of NADPH and kept in an incubator shaker at 37° C. Aliquots of 25 μl were withdrawn at 0, 5, 10, 15, 30, and 60 min and mixed with 125 μl of acetonitrile with formic acid (0.1% v/v) containing phenacetin (50 ng/ml; internal standard) for the termination of the reaction. The samples were then vortex mixed and filtered through a […] 96-well membrane filtration plate under centrifugation at speed of 2000×g for 5 min at 4° C. The filtrates were subjected to UPLC-mass spectrometry (MS/MS) analysis.
The intrinsic clearance of the compounds was calculated using a half-life employing the ‘substrate depletion’ approach. The apparent half-life was calculated from the pseudo-first-order rate constants obtained by linear regression of log (concentration) and time plots. The in vitro intrinsic clearance of IFN was estimated using the formula: […]
Where k is the slope of the line obtained by plotting the natural logarithmic of the percentage of parent remaining versus time and V is the volume of incubation.
The in vitro intrinsic clearance was scaled to whole-organ (hepatic) in vivo intrinsic CL (CLint,H) using the scaling factors available in the literature using equation (Mahmood I. Application of allometric principles for the prediction of pharmacokinetics in human and veterinary drug development. Advanced drug delivery reviews, 2007, 59(11), 1177-1192)
MPPGL represents the microsomal protein per gram of Sprague Dawley rat liver (45 mg/g) and liver weight per kg body weight was 40 g/kg.
In general terms: Liver microsomes are a subcellular fraction often used to study metabolism.

The mark [2] stands for this setting: Ki (nM ± SEM) a2A-AR, Table 3-2, 3 independent experiments.
[3] abbreviates: Table 3-2, 3 independent experiments, read-out: Ki (nM ± SEM) MOR.
Setting [4] is: Table 3-2, 3 independent experiments, read-out: Ki (nM ± SEM) KOR.
Setting [5] is: Table 3-2, 3 independent experiments, read-out: Ki (nM ± SEM) DOR.
Where [6] appears, read: Table A1, data summary #1, read-out: Alpha2A Ki ± SEM.
Setting [7] is: Table A4, data summary #2, read-out: Alpha2A Ki ± SEM.
Setting [8] is: Table A1, data summary #1, read-out: MOR Ki ± SEM.
Setting [9] is: Table A4, data summary #2, read-out: MOR Ki ± SEM.
[10] abbreviates: Table A1, data summary #1, read-out: KOR Ki ± SEM.
[11] abbreviates: Table A4, data summary #2, read-out: KOR Ki ± SEM.
Where [12] appears, read: Table A1, data summary #1, read-out: DOR Ki ± SEM.
Where [13] appears, read: Table A4, data summary #2, read-out: DOR Ki ± SEM.

As a reminder, the Ki is a measure of affinity in units of concentration, obtained from inhibition or displacement.

Where two headings read alike, the source gives them in different places.

Chain of hMOR (P35372 whole entry): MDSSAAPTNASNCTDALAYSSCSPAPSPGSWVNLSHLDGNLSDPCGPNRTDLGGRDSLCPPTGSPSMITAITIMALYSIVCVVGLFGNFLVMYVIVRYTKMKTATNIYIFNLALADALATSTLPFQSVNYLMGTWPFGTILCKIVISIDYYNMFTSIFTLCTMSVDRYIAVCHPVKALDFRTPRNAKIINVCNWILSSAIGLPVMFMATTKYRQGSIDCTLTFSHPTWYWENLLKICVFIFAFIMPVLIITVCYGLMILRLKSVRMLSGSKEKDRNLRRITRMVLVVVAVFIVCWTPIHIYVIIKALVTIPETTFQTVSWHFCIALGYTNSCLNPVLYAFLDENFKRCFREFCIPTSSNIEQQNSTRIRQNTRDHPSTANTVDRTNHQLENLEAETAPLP
Chain of hDOR (P41143 whole entry): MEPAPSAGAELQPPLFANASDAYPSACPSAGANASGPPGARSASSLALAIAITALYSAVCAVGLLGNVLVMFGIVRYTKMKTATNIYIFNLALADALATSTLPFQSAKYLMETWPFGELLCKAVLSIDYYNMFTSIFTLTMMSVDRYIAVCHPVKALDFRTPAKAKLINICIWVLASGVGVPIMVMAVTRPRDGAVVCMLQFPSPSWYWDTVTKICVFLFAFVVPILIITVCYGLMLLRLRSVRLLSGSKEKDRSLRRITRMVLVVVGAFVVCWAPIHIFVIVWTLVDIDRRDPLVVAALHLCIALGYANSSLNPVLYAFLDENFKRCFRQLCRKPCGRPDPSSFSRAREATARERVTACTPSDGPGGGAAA
Chain of hKOR (P41145 whole entry): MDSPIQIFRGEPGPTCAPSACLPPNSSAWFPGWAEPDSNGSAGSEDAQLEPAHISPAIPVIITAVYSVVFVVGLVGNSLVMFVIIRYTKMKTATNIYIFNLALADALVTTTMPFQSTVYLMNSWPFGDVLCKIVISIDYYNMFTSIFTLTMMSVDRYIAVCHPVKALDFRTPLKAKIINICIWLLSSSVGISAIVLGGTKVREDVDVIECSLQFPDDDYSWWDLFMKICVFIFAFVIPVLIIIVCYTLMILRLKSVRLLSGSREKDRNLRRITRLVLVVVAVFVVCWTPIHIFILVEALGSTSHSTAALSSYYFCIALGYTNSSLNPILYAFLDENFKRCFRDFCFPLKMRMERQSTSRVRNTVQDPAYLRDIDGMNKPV

As for `CO/C=C(/C(=O)OC)C1CCN(CCc2c[nH]c3ccccc23)CC1` [Compound 3-23], the Ki was 741 ± 19.3 nM at α2A adrenergic receptor (Ki (nM ± SEM) a2A-AR, Table 3-1, 3 independent experiments); 741 ± 19.3 nM at α2A adrenergic receptor (setting [2]); 741 ± 19.3 nM on α2A adrenergic receptor (Ki (nM ± SEM) a2A-AR, Table 3-4, 3 independent experiments); 741 ± 19.3 nM on α2A adrenergic receptor (Ki (nM ± SEM) a2A-AR, Table 3-6, 3 independent experiments); 741 ± 19.3 nM at α2A adrenergic receptor (Ki (nM ± SEM) a2A-ar, Table 3-5, 3 independent experiments); 451 ± 108 nM on hMOR (Table 3-1, 3 independent experiments, read-out: Ki (nM ± SEM) MOR). Moreover, the Ki at hMOR (setting [3]) was 451 ± 108 nM; on hMOR (Table 3-4, 3 independent experiments, read-out: Ki (nM ± SEM) MOR) it was 451 ± 108 nM; on hMOR (Table 3-5, 3 independent experiments, read-out: Ki (nM ± SEM) MOR), 451 ± 108 nM; at hMOR (Table 3-6, 3 independent experiments, read-out: Ki (nM ± SEM) MOR), 451 ± 108 nM; on α2C adrenergic receptor (Table 3-1), 830 ± 268 nM; on α2C adrenergic receptor (Table 3-2) it was 830 ± 268 nM. Also, the Ki at α2C adrenergic receptor (Table 3-4) came to 830 ± 268 nM; at α2C adrenergic receptor (Table 3-5) it was 830 ± 268 nM; at α2C adrenergic receptor (Table 3-6), 135 ± 12.5 nM; at hKOR (Table 3-1, 3 independent experiments, read-out: Ki (nM ± SEM) KOR), 3670 ± 1260 nM; on hKOR (setting [4]), 3670 ± 1260 nM; at hKOR (Table 3-4, 3 independent experiments, read-out: Ki (nM ± SEM) KOR) it was 3670 ± 1260 nM. Besides, the Ki at hKOR (Table 3-5, 3 independent experiments, read-out: Ki (nM ± SEM) KOR) is 3670 ± 1260 nM; on hKOR (Table 3-6, 3 independent experiments, read-out: Ki (nM ± SEM) KOR), 3670 ± 1260 nM; on hDOR (Table 3-1, 3 independent experiments, read-out: Ki (nM ± SEM) DOR) it was greater than 10000 nM; on hDOR (setting [5]) it was greater than 10000 nM; at hDOR (Table 3-4, 3 independent experiments, read-out: Ki (nM ± SEM) DOR), greater than 10000 nM; at hDOR (Table 3-5, 3 independent experiments, read-out: Ki (nM ± SEM) DOR), greater than 10000 nM. Also, the Ki at hDOR (Table 3-6, 3 independent experiments, read-out: Ki (nM ± SEM) DOR) is greater than 10000 nM. Moreover, the “SR: Selectivity Ratio (KiMOR/Kiα2A)” value on hMOR (Table 3-1), on hMOR (Table 3-2), at hMOR (Table 3-4), on hMOR (Table 3-5) and on hMOR (Table 3-6) was 0.61 throughout.

On to `COC(=O)CC1CCN(CCc2c[nH]c3c(OC)cccc23)CC1` [Compound 3-42], for which the Ki on α2A adrenergic receptor (setting [2]) is 1300 ± 129 nM; at α2A adrenergic receptor (Ki (nM ± SEM) a2A-AR, Table 3-3, 3 independent experiments), 1300 ± 129 nM; at hMOR (setting [3]) it was greater than 10000 nM; on hMOR (Table 3-3, 3 independent experiments, read-out: Ki (nM ± SEM) MOR) it was greater than 10000 nM; on α2C adrenergic receptor (Table 3-2) it was 830 ± 268 nM; at hKOR (setting [4]), greater than 10000 nM. Moreover, the Ki on hKOR (Table 3-3, 3 independent experiments, read-out: Ki (nM ± SEM) KOR) was greater than 10000 nM; at hDOR (setting [5]), greater than 10000 nM; at hDOR (Table 3-3, 3 independent experiments, read-out: Ki (nM ± SEM) DOR) it was greater than 10000 nM.

On to `CC[C@@H]1CN2CCc3c([nH]c4cccc(OC)c34)[C@@H]2C[C@@H]1/C(=C\OC)C(=O)NC` [SUSM-25, (E)-2-((2S,3S,12bS)-3-ethyl-8-methoxy-1,2,3,4,6,7,12,12b-octahydroindolo[2,3-a]quinolizin-2-yl)-3-methoxy-N-methylacrylamide], for which the inhibitory constant (Ki) is 7040 ± 1820 nM on α2A adrenergic receptor (setting [6]); 6740 ± 1910 nM on α2A adrenergic receptor (setting [7]); 4020 ± 728 nM on hMOR (setting [8]); 3520 ± 763 nM on hMOR (setting [9]); greater than 10000 nM at hKOR (setting [10]); greater than 10000 nM on hKOR (setting [11]). Besides, the Ki at hDOR (setting [12]) and on hDOR (setting [13]) was greater than 10000 nM in each case. The “Whole liver clearance, CL int, H” value in data set [1] was found to be 8.9 mL/min/kg. Moreover, the “RLM stability” value in data set [1] is greater than 60 min.

As to `CCCNC(=O)/C(=C/OC)[C@H]1C[C@H]2c3[nH]c4cccc(OC)c4c3CCN2C[C@H]1CC` [SUSM-27, (E)-2-((2S,3S,12bS)-3-ethyl-8-methoxy-1,2,3,4,6,7,12,12b-octahydroindolo[2,3-a]quinolizin-2-yl)-3-methoxy-N-propylacrylamide], the Ki is 2730 ± 1260 nM on α2A adrenergic receptor (setting [6]); 6450 ± 2590 nM on α2A adrenergic receptor (setting [7]); 4560 ± 692 nM on hMOR (setting [8]); 4560 ± 692 nM on hMOR (setting [9]); greater than 10000 nM at hKOR (setting [10]); greater than 10000 nM at hKOR (setting [11]). For the same compound, the Ki on hDOR (setting [12]) and at hDOR (setting [13]) was greater than 10000 nM each time. Besides, the “Whole liver clearance, CL int, H” value in data set [1] is 20.8 mL/min/kg. In addition, the “RLM stability” value in data set [1] is on record as greater than 60 min.

In the case of `CCNC(=O)/C(=C/OC)[C@H]1C[C@H]2c3[nH]c4cccc(OC)c4c3CCN2C[C@H]1CC` [SUSM-32, (E)-N-ethyl-2-((2S,3S,12bS)-3-ethyl-8-methoxy-1,2,3,4,6,7,12,12b-octahydroindolo[2,3-a]quinolizin-2-yl)-3-methoxyacrylamide], the Ki is 4290 ± 1120 nM at α2A adrenergic receptor (setting [6]); 3870 ± 984 nM on α2A adrenergic receptor (setting [7]); 4220 ± 752 nM at hMOR (setting [8]); 4220 ± 752 nM on hMOR (setting [9]); greater than 10000 nM on hKOR (setting [10]); greater than 10000 nM at hKOR (setting [11]). Further, the Ki at hDOR (setting [12]) and at hDOR (setting [13]) was greater than 10000 nM in each case. The “Whole liver clearance, CL int, H” value in data set [1] worked out at 11.4 mL/min/kg. Also, the “RLM stability” value in data set [1] is on record as greater than 60 min.

Turning to `CC[C@@H]1CN2CCc3c([nH]c4cccc(OC)c34)[C@@H]2C[C@@H]1/C(=C\OC)C(=O)NC1CCCC1` [SUSM-506, (E)-N-cyclopentyl-2-((2S,3S,12bS)-3-ethyl-8-methoxy-1,2,3,4,6,7,12,12b-octahydroindolo[2,3-a]quinolizin-2-yl)-3-methoxyacrylamide], the Ki on α2A adrenergic receptor (setting [6]) was determined as 8970 ± 572 nM; on α2A adrenergic receptor (setting [7]), 5750 ± 568 nM; at hMOR (setting [8]), 1380 ± 176 nM; at hMOR (setting [9]), 1380 ± 176 nM; at hKOR (setting [10]), 5850 ± 657 nM; at hKOR (setting [11]) it was 5850 ± 657 nM. The Ki at hDOR (setting [12]) and at hDOR (setting [13]) was greater than 10000 nM each time. In addition, in data set [1], the “Whole liver clearance, CL int, H” value was 36.4 mL/min/kg. The “RLM stability” value in data set [1] was found to be 30 min.
